Values of other authors in patent US12220439B2, “Methods of diagnosing and treating dry eye syndrome and compositions for treating a human eye” (Akrivista LLC, priority 2017, dated 2025).

Experiments:
[1] = tested on: HLA-DR; details: dry eye disease biomarker
[2] = tested on: Pseudomonas aeruginosa; details: strains of Pseudomonas aeruginosa
[3] = tested on: corneal cells; details: concentrations from about 0.004% to about 0.02% (w/v)

Compound | HLA-DR presence on treatment [1] | effectiveness against potential contaminants [2] | effect on corneal epithelium [3]
C[C@@H]1CCN(C(=O)CC#N)C[C@@H]1N(C)c1ncnc2[nH]ccc12 [tofacitinib] | Presence decreased with CsA |  | 
benzalkonium chloride [BAK] |  | not effective | can lead to corneal epithelial separation
